One series deals with L. mesenteroides PTA (Leuconostoc mesenteroides, UniProt Q03W64). It is filed as biochemical.
For series [1], the target named is recombinant wild-type M. bovis BCG PTA (Mycobacterium bovis, UniProt A0A679LAX5). In words: biochemical. It is filed as biochemical.
The subject of series [2] is OCT313-resistant BCG strains OCTR_3 and OCTR_4. Type of series: cell-based, Mycobacterium bovis BCG.
The test system of a further series is M. smegmatis mc^2 155. The series can be described thus: microbe, parasite or virus in culture. Type of series: cell-based, Mycobacterium smegmatis.
The next series deals with Escherichia coli DH5α. The series can be described thus: microbe, parasite or virus in culture. It is filed as cell-based.
For series [3], the system named is M. bovis BCG Tokyo 172. The series can be described thus: microbe, parasite or virus in culture. Type of series: cell-based, Mycobacterium bovis BCG.
For a further series, the system named is OCT313-resistant BCG. In words: microbe, parasite or virus in culture. Type of series: cell-based, Mycobacterium bovis BCG.
The test system of the next series is Staphylococcus aureus. In words: microbe, parasite or virus in culture. Type of series: cell-based.
Another series deals with M. bovis. The series can be described thus: microbe, parasite or virus in culture. Type of series: cell-based, Mycobacterium bovis.
Another series concerns M. tuberculosis H37Rv. In words: microbe, parasite or virus in culture. Type of series: cell-based, Mycobacterium tuberculosis.
For another series, the system named is M. avium 104. The series can be described thus: microbe, parasite or virus in culture. Type of series: cell-based, Mycobacterium avium.
In a further series the test system is A549. As to conditions: human.
The next series deals with MRC-5. As to conditions: human.
Series [4] has as its system M. bovis BCG Tokyo 172. It is filed as cell-based, Mycobacterium bovis BCG.
A further series deals with THP-1. The note with it: human.
The mark [5] stands for this setting: Mycobacterium avium, 104, 168 h.
The mark [6] stands for this setting: Mycolicibacterium smegmatis, MC^2155, 72 h.
[7] abbreviates: Mycobacterium tuberculosis variant bovis BCG, BCG, 336 h.
[8] abbreviates: Mycobacterium tuberculosis variant bovis, 336 h.
[9] abbreviates: Mycobacterium tuberculosis, H37RV.
Where [10] appears, read: Mycobacterium tuberculosis, H37RV, 336 h.

In brackets after ≈: the same amount, converted by molar mass. Read-outs that look alike come from different tables or passages of the source.

The values below come from publication PMC12724200 (mSphere, 2025).

One may read the IC50 as the concentration that inhibits the measured activity by half.

Chain of recombinant wild-type M. bovis BCG PTA (A0A679LAX5 1-690): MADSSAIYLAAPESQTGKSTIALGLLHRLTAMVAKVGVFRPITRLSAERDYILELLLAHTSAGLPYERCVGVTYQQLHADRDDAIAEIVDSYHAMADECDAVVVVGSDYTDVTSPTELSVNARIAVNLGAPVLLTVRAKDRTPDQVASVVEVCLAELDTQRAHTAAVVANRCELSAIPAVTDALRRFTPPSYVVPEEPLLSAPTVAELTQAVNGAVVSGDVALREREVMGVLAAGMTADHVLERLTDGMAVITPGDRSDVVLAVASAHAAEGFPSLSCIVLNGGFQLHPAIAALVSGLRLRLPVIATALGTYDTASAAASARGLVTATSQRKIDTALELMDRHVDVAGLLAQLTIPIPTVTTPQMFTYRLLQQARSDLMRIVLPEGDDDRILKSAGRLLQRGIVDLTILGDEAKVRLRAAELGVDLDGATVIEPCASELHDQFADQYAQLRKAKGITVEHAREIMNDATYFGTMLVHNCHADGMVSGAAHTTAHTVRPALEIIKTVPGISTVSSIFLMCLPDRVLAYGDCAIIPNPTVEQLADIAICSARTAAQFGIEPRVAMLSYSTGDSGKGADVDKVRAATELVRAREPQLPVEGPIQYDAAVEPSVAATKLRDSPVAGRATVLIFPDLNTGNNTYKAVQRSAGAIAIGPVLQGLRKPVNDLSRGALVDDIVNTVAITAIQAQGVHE
Chain of L. mesenteroides PTA (Q03W64 1-326): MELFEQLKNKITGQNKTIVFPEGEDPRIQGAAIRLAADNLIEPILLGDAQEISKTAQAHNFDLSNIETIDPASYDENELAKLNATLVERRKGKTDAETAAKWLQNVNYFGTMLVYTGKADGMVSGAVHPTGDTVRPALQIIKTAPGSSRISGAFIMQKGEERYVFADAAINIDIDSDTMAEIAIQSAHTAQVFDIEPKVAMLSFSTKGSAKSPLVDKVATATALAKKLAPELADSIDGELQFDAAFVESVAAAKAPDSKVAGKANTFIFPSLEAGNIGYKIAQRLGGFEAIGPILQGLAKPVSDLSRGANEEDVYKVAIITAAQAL

Consider `CCN1C(=O)C=CC1=O` [NEM, N-ethylmaleimide], for which the IC50 was found to be 50.9 µM against L. mesenteroides PTA and 14.5 µM in series [1].
Regarding Dimethyldithiocarbamate [DMDC], in series [2], the “Antibacterial activity in Wayne dormancy model” value (shortened to “Antibacterial activity”) is given as “similar”. Moreover, the MIC against M. smegmatis mc^2 155 is above 100 µg/mL; with Escherichia coli DH5α, 200 µg/mL; in the series with M. bovis BCG Tokyo 172 [3], 3.13 µg/mL; against OCT313-resistant BCG, 12.5 µg/mL; in the series with Staphylococcus aureus it was 25 µg/mL; against M. bovis, 3.13 µg/mL. For the same compound, the MIC with M. tuberculosis H37Rv was determined as 1.56 µg/mL. For the same compound, the “Inhibition of PTA enzyme activity (in words)” value in series [1] was “did not inhibit PTA”.
Consider `NNC(=O)c1ccncc1` [INH, isoniazid], for which the MIC against M. avium 104 (setting [5]) is 1.56 µg/mL (≈ 11.4 µM); in the series on M. smegmatis mc^2 155 (setting [6]), 3.13 µg/mL (≈ 22.8 µM); against Escherichia coli DH5α (Escherichia coli), above 100 µg/mL; in the series on M. bovis BCG Tokyo 172 [3] (setting [7]), 0.04 µg/mL (≈ 0.292 µM); against OCT313-resistant BCG (setting [7]) it was 0.04 µg/mL (≈ 0.292 µM); against Staphylococcus aureus (Staphylococcus aureus), above 100 µg/mL. Moreover, the MIC against M. bovis (setting [8]), against M. tuberculosis H37Rv (setting [9]) and against M. tuberculosis H37Rv (setting [10]) was 0.04 µg/mL (≈ 0.292 µM) throughout. Moreover, the values for the 85% survival conc. with A549, with MRC-5 and in the series on THP-1 were 1,000 μg/mL, 250 µg/mL and 100 µg/mL, respectively. Further, the figures for the LC50/MIC in the series on A549, with MRC-5 and with THP-1 were 77,277, 7,325 and 53,613, respectively. For the same compound, in the series on M. bovis BCG Tokyo 172 [4], the “Antibacterial activity” value is on record as “showed reduced activity”.
Regarding `CC[C@@H](CO)NCCN[C@@H](CC)CO` [EB, ethambutol], the MIC with M. avium 104 (setting [5]) was 1.6 µg/mL (≈ 7.83 µM); in the series on M. smegmatis mc^2 155 (setting [6]) it was 12.5 µg/mL (≈ 61.2 µM); with Escherichia coli DH5α (Escherichia coli), above 100 µg/mL; in the series with M. bovis BCG Tokyo 172 [3] (setting [7]), 3 µg/mL (≈ 14.7 µM); with OCT313-resistant BCG (setting [7]), 3 µg/mL (≈ 14.7 µM); in the series with Staphylococcus aureus (Staphylococcus aureus), above 100 µg/mL. Further, the MIC with M. bovis (setting [8]) was 0.78 µg/mL (≈ 3.82 µM); against M. tuberculosis H37Rv (setting [9]), 2.5 µg/mL (≈ 12.2 µM); in the series with M. tuberculosis H37Rv (setting [10]) it was 2.5 µg/mL (≈ 12.2 µM). In addition, the 85% survival conc. in the series with A549 is 1,000 μg/mL; with MRC-5 it was 250 µg/mL; in the series on THP-1, 500 µg/mL. For the same compound, the LC50/MIC with A549 is reported as 1,434; with MRC-5, 111; with THP-1, 916.
In the case of `CC(=O)N[C@@H]1[C@@H](O)[C@H](O)[C@@H](CO)O[C@H]1SC(=S)N(C)C` [OCT313, 2-acetamido-2-deoxy-β-D-glucopyranosyl N,N-dimethyldithiocarbamate], the MIC against M. avium 104 (setting [5]) is above 100 µg/mL; against M. smegmatis mc^2 155 (setting [6]) it was above 100 µg/mL; in the series on Escherichia coli DH5α (Escherichia coli), above 100 µg/mL; in the series with M. bovis BCG Tokyo 172 [3] (setting [7]), 12.5 µg/mL (≈ 38.5 µM); with OCT313-resistant BCG (Mycobacterium tuberculosis variant bovis BCG, BCG), above 100 µg/mL; in the series with OCT313-resistant BCG (setting [7]), above 200 µg/mL. The MIC against Staphylococcus aureus (Staphylococcus aureus) is above 100 µg/mL; against M. bovis (setting [8]) it was 31.3 µg/mL (≈ 96.5 µM); in the series with M. tuberculosis H37Rv (setting [9]) it was 25 µg/mL (≈ 77.1 µM); with M. tuberculosis H37Rv (setting [10]) it was 25 µg/mL (≈ 77.1 µM). For the same compound, the 85% survival conc. in the series with A549 is 500 µg/mL; in the series with MRC-5, 2,500 μg/mL; with THP-1, 1,250 μg/mL. Further, the “Change of 50% lethal concentration (LD50) by sugar derivatization” value in the series on A549 worked out at 196 fold; in the series with MRC-5, 550 fold; in the series on THP-1, 27 fold. Moreover, the LC50/MIC in the series on A549 is 188; in the series with MRC-5, 242; in the series on THP-1, 356. Besides, the half-maximal inhibitory concentration (IC50) against L. mesenteroides PTA was above 1000 µM; in [1] it was 2.79 µM. For the same compound, the “Antibacterial activity” value in the series with M. bovis BCG Tokyo 172 [4] is reported as “susceptible to OCT313 in a dose-dependent manner”. Also, the “Inhibition pattern (Lineweaver-Burk plots)” value in series [1] is “mixed inhibition”.
As to `CC(=O)N[C@@H]1[C@@H](O)[C@H](O)[C@@H](CO)O[C@@H]1O` [GlcNAc, N-acetyl-D-glucosamine], the MIC with M. avium 104, in the series on M. smegmatis mc^2 155, in the series on Escherichia coli DH5α, with M. bovis BCG Tokyo 172 [3], against OCT313-resistant BCG and with Staphylococcus aureus was >1,000 μg/mL in each case. In addition, the MIC in the series with M. bovis and against M. tuberculosis H37Rv was >1,000 μg/mL throughout. Also, the “Inhibition of PTA enzyme activity (in words)” value in series [1] is reported as “not sufficient to inhibit enzyme activity”.
As to `Cc1ncc([N+](=O)[O-])n1CCO` [MTZ, metronidazole], the “Antibacterial activity” value in the series on M. bovis BCG Tokyo 172 [4] is listed as “showed antibacterial activity”.
Regarding `CO[C@H]1/C=C/O[C@@]2(C)Oc3c(C)c(O)c4c(O)c(c(/C=N/N5CCN(C)CC5)c(O)c4c3C2=O)NC(=O)/C(C)=C\C=C\[C@H](C)[C@H](O)[C@@H](C)[C@@H](O)[C@@H](C)[C@H](OC(C)=O)[C@@H]1C` [RFP, rifampicin], the MIC against M. avium 104 (setting [5]) stood at 0.25 µg/mL (≈ 0.304 µM); against M. smegmatis mc^2 155 (setting [6]), 1.56 µg/mL (≈ 1.9 µM); in the series on Escherichia coli DH5α (Escherichia coli), 12.5 µg/mL (≈ 15.2 µM); with M. bovis BCG Tokyo 172 [3] (setting [7]), 0.01 µg/mL (≈ 0.0122 µM); against OCT313-resistant BCG (setting [7]) it was 0.01 µg/mL (≈ 0.0122 µM); against Staphylococcus aureus (Staphylococcus aureus), 0.02 µg/mL (≈ 0.0243 µM). Moreover, the MIC against M. bovis (setting [8]) came to 0.016 µg/mL (≈ 0.0194 µM); in the series with M. tuberculosis H37Rv (setting [9]), 0.004 µg/mL (≈ 0.00486 µM); with M. tuberculosis H37Rv (setting [10]) it was 0.004 µg/mL (≈ 0.00486 µM). For the same compound, the 85% survival conc. in the series with A549, in the series with MRC-5 and in the series on THP-1 was 10 µg/mL throughout. Also, the LC50/MIC is recorded as 44,510 in the series with A549, 16,250 with MRC-5 and 16,256 in the series on THP-1.
As for `[H]/N=C(/N)N[C@H]1[C@H](O)[C@@H](O)[C@H](O[C@@H]2O[C@@H](C)[C@](O)(C=O)[C@H]2O[C@@H]2O[C@@H](CO)[C@H](O)[C@@H](O)[C@@H]2NC)[C@@H](N/C(N)=N\[H])[C@@H]1O` [SM, streptomycin], the MIC is 3.13 µg/mL (≈ 5.38 µM) with M. avium 104 (setting [5]); 0.39 µg/mL (≈ 0.671 µM) against M. smegmatis mc^2 155 (setting [6]); 25 µg/mL (≈ 43 µM) in the series with Escherichia coli DH5α (Escherichia coli); 0.2 µg/mL (≈ 0.344 µM) in the series on M. bovis BCG Tokyo 172 [3] (setting [7]); 0.2 µg/mL (≈ 0.344 µM) against OCT313-resistant BCG (setting [7]); 6.25 µg/mL (≈ 10.7 µM) with Staphylococcus aureus (Staphylococcus aureus). Further, the MIC against M. bovis (setting [8]) came out at 0.2 µg/mL (≈ 0.344 µM); in the series on M. tuberculosis H37Rv (setting [9]), 0.4 µg/mL (≈ 0.688 µM); in the series on M. tuberculosis H37Rv (setting [10]), 0.39 µg/mL (≈ 0.671 µM). The 85% survival conc. was 5,000 μg/mL in the series on A549, 1,000 μg/mL with MRC-5 and 100 µg/mL in the series on THP-1. In addition, the LC50/MIC with A549 was 31,350; in the series with MRC-5, 4,175; with THP-1, 17,908.
